Laboratory results reported in patent US12357656B2 (AMORPHICAL LTD, priority 2019, dated 2025).

Legend:
[1] = Titration of DPBS and DMEM/F12 + 10% FBS with different carbonate sources (pH effect); format: physicochemical; conditions: for Amount in ml that was needed to reach pH 8: 73.5 mM carbonate suspension or solution
From the text: Two commercial media, Dulbecco's phosphate-buffered saline (DPBS) and Gibco Dulbecco's Modified Eagle Medium: Nutrient Mixture F-12 (DMEM/F12), with 10% Fetal Bovine Serum (FBS) were used to evaluate the pH effect of different sources of calcium carbonate. DPBS is Dulbecco's Phosphate Buffered Saline, generally serves as an isotonic saline solution or buffer for washing cells and tissues and intends to provide a buffer system for maintaining cell culture media in the physiological range of 7.2-7.6.
DMEM/F12 is a widely used basal medium for supporting the growth of many different mammalian cells. DMEM/F12 medium+10% FBS was used to maximally mimic the environment of the body fluids.
Three sources of calcium carbonate were used ACC, Sodium bicarbonate (SBC) and Crystalline Calcium Carbonate (CCC).
The final composition comprised 73.53 mM of CaCO3 in the water suspension.
The addition was done until a pH plateau was accomplished or the level of the solution reached the end of the capacity of the used container (˜130 ml).

[2] = chronic ingestion, 300 to 500 mg/kg; Lopes-Silva; cited from earlier work
[3] = human performance; Requena 2005; cited from earlier work
[4] = oral administration of 300 mg/kg; Zajac 2009; cited from earlier work
[5] = test system: athletes; conditions: about 20-35 g/day; cited from earlier work
[6] = supplementation; Sounders 2016; cited from earlier work

| SMILES | Final pH ([1]; added to DMEM/F12 + 10% FBS) | Amount in ml that was needed to reach pH 8 ([1]; added to DMEM/F12 + 10% FBS) [ml] | Final pH ([1]; added to DPBS) | Amount in ml that was needed to reach pH 8 ([1]; added to DPBS) [ml] | capability to reach higher pH levels ([1]; SBC compared with CCC) | Wingate test peak or mean power [2] | doses for which a significant effect was shown [3] | training intensity and swimming performance [4] | reported adverse effects [5] | effect on exercise [6] |
| --- | --- | --- | --- | --- | --- | --- | --- | --- | --- | --- |
| O=C([O-])[O-].[Ca+2] [CCC, Crystalline Calcium Carbonate] | 7.90 | 80 | 8 | 65 | – | – | – | – | – | – |
| O=C([O-])O.[Na+] [SBC, Sodium bicarbonate] | 8.3 | 77 | 8.30 | 76.4 | not significantly different | chronic ingestion of NaHCO3 did | above 300 mg/kg | can increase training intensity and swimming performance | stomach aches and discomfort, nausea, and vomiting | – |
| NCCC(=O)O [β-alanine] | – | – | – | – | – | – | – | – | – | significant overall ergogenic effect |
